Laboratory results published in article PMC9718554, “Discovery of a fragment hit compound targeting D-Ala:D-Ala ligase of bacterial peptidoglycan biosynthesis” (Journal of Enzyme Inhibition and Medicinal Chemistry, 2022).

Each molecule was assayed against T1, E. coli DdlB enzyme (D-alanine:D-alanine ligase) (Escherichia coli, UniProt P07862) (assay: biochemical). Conditions: fragment library screening; tested concentration 1.8 mM; read-out: DdlB RA.
T1 construct: made in house; host or cells: E. coli

SMILES | remaining activity at 1800 µM [%]
O=C(O)C1CCN(c2nc3cc(Cl)ccc3o2)CC1 [Compound 8019-8559] | 93
O=C(O)[C@@H]1[C@H]2CC[C@H](CC2)[C@@H]1C(=O)NCc1ccco1 [Compound Y206-3693] | 92

Same assay, conditions: fragment library screening; tested concentration 2.0 mM; read-out: DdlB RA

SMILES | remaining activity at 2000 µM [%]
O=C(NCc1cc[nH]n1)[C@H]1CC=CC[C@H]1C(=O)O [Compound Y504-7917] | 88
Cc1ccc2c(c1)CCCN2C(=O)CCC(=O)O [Compound Y206-3286] | 90

Same assay, conditions: read-out: DdlB RA

SMILES | remaining activity at 2500 µM [%]
Nc1cccc(C(F)(F)F)n1 [FLD091] | 100

Same assay, conditions: residual activity of DdlB, fragment library screening, tested concentration 3.4 mM; read-out: DdlB RA

SMILES | remaining activity at 3400 µM [%]
CCc1c(C)nn2cnnc2c1O [Compound 8010-0007] | 97

Same assay, conditions: residual activity of DdlB, fragment library screening, tested concentration 3.9 mM; read-out: DdlB RA

SMILES | remaining activity at 3900 µM [%]
COCn1nc(C)c(N)c1C [Compound Y504-8876] | 92

Same assay, conditions: residual activity of DdlB, fragment library screening, tested concentration 5.5 mM; read-out: DdlB RA

SMILES | remaining activity at 5500 µM [%]
N#CCc1nnn[nH]1 [Compound 8018-8768] | 97

Same assay, conditions: residual activity of DdlB; fragment library screening; tested concentration 2.5 mM; read-out: DdlB RA

SMILES | remaining activity at 2500 µM [%]
O=C(O)c1ccc(F)cc1 [FLD062] | 98
Cc1nc(-c2ccc(C(=O)O)cc2)cs1 [FLD018] | 99
Cc1cc(Cl)nc(N)n1 [FLD046] | 79
NS(=O)(=O)c1ccccc1 [FLD110] | 110
Cc1cccc(N)c1C#N [FLD086] | 100
CCOC(=O)Cc1ccccn1 [FLD164] | 97
Brc1ccccn1 [FLD169] | 100
Cc1ncc(CO)c(CO)c1O [FLD194] | 99
Cc1cc(N)[nH]n1 [FLD153] | 98
Nc1ccc2ccccc2c1 [FLD074] | 89
Nc1cccc(F)n1 [FLD199] | 91
CN(C)c1ccc(C(=O)O)cc1 [FLD070] | 93
CC(=O)Oc1cccc(C(=O)O)c1 [FLD001] | 100
CNc1nnc(C(F)(F)F)s1 [FLD140] | 94
COc1ccc(Br)cc1OC [FLD159] | 98
Clc1nccs1 [FLD184] | 98
NOCc1ccccc1 [FLD044] | 94
O=C1CNCCN1 [FLD058] | 100
Nc1cc(Cl)ccc1O [FLD032] | 100
O=c1[nH][nH]c2ccccc12 [FLD002] | 89
N#CCc1ccc(C(F)(F)F)cc1 [FLD116] | 94
C#Cc1cccc(OC)c1 [FLD182] | 91
N#Cc1cccnc1N [FLD196] | 99

Same assay, conditions: residual activity; tested concentration 1.7 mM; read-out: DdlB RA

SMILES | remaining activity at 1700 µM [%]
Cc1nnc(C2CCCCN2C(=O)NC2CCCCC2)[nH]1 (stereo not drawn) [Compound M754-0764] | 77
COCCn1nc(-c2cocn2)c2c1CCN(C(C)C)C2 [SD01-0107] | 92

Same assay, conditions: residual activity; tested concentration 1.8 mM; read-out: DdlB RA

SMILES | remaining activity at 1800 µM [%]
Cc1cccc(C(=O)O)c1NC(=O)c1ccc(F)cc1 [Compound 8009-0898] | 99

Same assay, conditions: residual activity; tested concentration 1.9 mM; read-out: DdlB RA

SMILES | remaining activity at 1900 µM [%]
COc1cccc(CNC(=O)C2CCCCC(=O)N2C)c1 (stereo not drawn) [Compound S513-0092] | 97
CN1CCC2(CC1)CN(C1CCC1)Cc1ccccc1O2 [CM3852-0302] | 86
O=C1CS(=O)(=O)C2(CCNCC2)N1c1ccccc1 [Compound T140-0972] | 93

Same assay, conditions: residual activity; tested concentration 2.0 mM; read-out: DdlB RA

SMILES | remaining activity at 2000 µM [%]
O=C(O)c1cccnc1NCc1ccc(F)cc1 [Compound 8020-1800] | 102
CC(C)(C)c1cc(C(=O)O)nn1-c1ccccc1 [Compound 8012-7831] | 102
Cc1ccc(S(=O)(=O)N2CCc3[nH]cnc3C2)cc1 [Compound M512-0400] | 94
CCn1cc(S(=O)(=O)NC2CCCC2)c2cccnc21 [Compound P633-0557F] | 89

Same assay, conditions: residual activity; tested concentration 2.1 mM; read-out: DdlB RA

SMILES | remaining activity at 2100 µM [%]
CC1CN(S(=O)(=O)c2ccc(F)c(F)c2)CC(C)O1 (stereo not drawn) [Compound Y202-8173] | 95
Cc1ccc(F)cc1S(=O)(=O)N(C)CC1CCOC1 (stereo not drawn) [Compound S213-1645] | 102

Same assay, conditions: residual activity; tested concentration 2.2 mM; read-out: DdlB RA

SMILES | remaining activity at 2200 µM [%]
COC(=O)c1sc(C(=O)OC)c(O)c1O [Compound 8011-7913] | 86
NC(=O)CN1C(=O)C2(CCCCC2)C1c1ccccc1 (stereo not drawn) [Compound S642-0104] | 96
CCC(C)(C)NC(=O)C1CC(=O)N(c2ccccc2)C1 (stereo not drawn) [Compound Y031-3748] | 101
O=C(c1ccoc1)N1C[C@@H](CO)[C@H](c2ccncc2)C1 [Compound S824-2534] | 95
Cn1nccc1C(=O)N1CCC(Nc2cccnc2)C1 (stereo not drawn) [Compound S059-0159] | 85

Same assay, conditions: residual activity; tested concentration 2.3 mM; read-out: DdlB RA

SMILES | remaining activity at 2300 µM [%]
COc1cccc2c(O)c(C(=O)O)cnc12 [Compound 8019-9999] | 78
CNC(=O)NCCc1c[nH]c2ncccc12 [Compound M509-0295] | 80

Same assay, conditions: tested concentration 1.7 mM; read-out: DdlB RA

SMILES | remaining activity at 1700 µM [%]
c1cnc(-c2nc(C3CCNC3)no2)cn1 (stereo not drawn) [Compound S069-3207] | 95
O=S(=O)(O)c1nc2ccccc2n1Cc1ccccc1 [Compound 8019-7098] | 102

Same assay, conditions: tested concentration 1.8 mM; read-out: DdlB RA

SMILES | remaining activity at 1800 µM [%]
NS(=O)(=O)c1ccc(CNC(=O)C2CCCC2)cc1 [Compound Y207-3980] | 93
CCN(CC)CCNc1c(-c2ccccc2)c(=O)c1=O [Compound E470-0370] | 94
CCC(CC)C(=O)Nc1ccc(S(N)(=O)=O)cc1 [Compound Y203-8619] | 81
CCCC(C)C(=O)Nc1ccc(S(N)(=O)=O)cc1 (stereo not drawn) [Compound Y030-4922] | 77

Same assay, conditions: tested concentration 1.9 mM; read-out: DdlB RA

SMILES | remaining activity at 1900 µM [%]
CCc1cc(C2CCCN2S(=O)(=O)CC)on1 (stereo not drawn) [Compound J005-1008] | 98
CNCCN1C(=O)C(C)SC1c1ccccc1C (stereo not drawn) [Compound V007-8918] | 72

Same assay, conditions: tested concentration 2.0 mM; read-out: DdlB RA

SMILES | remaining activity at 2000 µM [%]
O=C(O)c1ccccc1NC(=O)C1CCCCC1 [Compound Y030-1673] | 104

Same assay, conditions: tested concentration 2.2 mM; read-out: DdlB RA

SMILES | remaining activity at 2200 µM [%]
CC(C)c1ccc(Nc2c(O)c(=O)c2=O)cc1 [Compound G317-0548] | 91
COc1ccc2[nH]c(S(=O)(=O)O)nc2c1 [Compound 3260-0314] | 91
CC1(C)Cc2noc(N)c2C(C)(C)N1O [Compound 8013-4059] | 96
Cc1ccc([C@@H](CC(=O)O)c2ccco2)cc1 [Compound 5664-0388] | 100
O=S(=O)(O)c1ccc(O)c2ncccc12 [Compound 4311-2142] | 96

Same assay, conditions: tested concentration 2.3 mM; read-out: DdlB RA

SMILES | remaining activity at 2300 µM [%]
CCCn1c(C)cnc1C1CCNC1 (stereo not drawn) [Compound T158-0004] | 86
COc1ncccc1S(=O)(=O)N1CCCCC1 [Compound C200-8263] | 100
Cc1cc(O)n(C2CCS(=O)(=O)C2)n1 (stereo not drawn) [Compound Y020-9160] | 99
CC(C)(C)NS(=O)(=O)Cc1ccc(Cl)cc1 [Compound Y031-1123] | 91

Same assay, conditions: tested concentration 2.4 mM; read-out: DdlB RA

SMILES | remaining activity at 2400 µM [%]
CCOC(=O)c1ccc2oc(=O)[nH]c2c1 [Compound G373-0551] | 92
Cc1ccc(C#N)c(SCC(=O)O)n1 [Compound 8009-7785] | 82
CN1CCN(C(=O)CCC(=O)O)c2cccnc21 [FF01-3162] | 65
O=C(Nc1ccccn1)NC1CCS(=O)(=O)C1 (stereo not drawn) [Compound 7098-0576] | 87
CCNC(=O)N1CCCN(C)c2ccccc21 [Compound T599-3176] | 96
CCC(CC)NC1=NS(=O)(=O)c2ccccc21 [Compound 8003-7481] | 100
NS(=O)(=O)Cc1ccccc1Cl [Compound 8008-0774] | 89
CCC1CCCCN1C(=O)C1CCCN1C(C)=O (stereo not drawn) [Compound Z601-4855] | 74
CC(C)CCN1C[C@@H]2CN(C)C(=O)[C@H](C)N2C1=O [SB41-0167] | 85

Same assay, conditions: tested concentration 2.5 mM; read-out: DdlB RA

SMILES | remaining activity at 2500 µM [%]
COc1ccc(-n2c(C)ccc2C)nc1 [Compound 8014-1211] | 22
O=S(=O)(O)c1ccc2[nH]nnc2c1 [Compound 8020-8129] | 93
O=C(O)Cc1n[nH]c(-c2ccncc2)n1 [Compound 8019-7883] | 97
CC1(C)CC(O)(c2cc(C(=O)O)no2)CCO1 (stereo not drawn) [Compound 8019-4352] | 72

Same assay, conditions: tested concentration 2.6 mM; read-out: DdlB RA

SMILES | remaining activity at 2600 µM [%]
O=C(O)c1nc2ccccc2nc1O [Compound 8016-8257] | 97

Same assay, conditions: tested concentration 2.7 mM; read-out: DdlB RA

SMILES | remaining activity at 2700 µM [%]
N#Cc1ccccc1S(N)(=O)=O [Compound 8016-9723] | 88

Same assay, conditions: tested concentration 2.8 mM; read-out: DdlB RA

SMILES | remaining activity at 2800 µM [%]
C=CCN1C(=O)NOC(N)=C1C#N [Compound 8017-4055] | 92

Same assay, conditions: tested concentration 3.1 mM; read-out: DdlB RA

SMILES | remaining activity at 3100 µM [%]
Oc1cc(-c2ccccc2)n[nH]1 [Compound Y501-8801] | 102
Cn1ccnc1S(=O)(=O)O [Compound 8019-8648] | 92
Cc1nc(N)nc(C)c1CCC(=O)O [FF01-4599] | 91

Same assay, conditions: tested concentration 3.2 mM; read-out: DdlB RA

SMILES | remaining activity at 3200 µM [%]
OB(O)c1ccc(F)c(F)c1 [Compound 1222-0123] | 88

Same assay, conditions: tested concentration 3.3 mM; read-out: DdlB RA

SMILES | remaining activity at 3300 µM [%]
CCc1ccc(B(O)O)cc1 [Compound 0054-0178] | 104

Same assay, conditions: tested concentration 3.5 mM; read-out: DdlB RA

SMILES | remaining activity at 3500 µM [%]
Nc1n[nH]c(CC(=O)O)n1 [Compound 8010-3882] | 100
